According to US20170173114A1, “METHODS AND COMPOSITIONS FOR INDUCTION OF UCP1 EXPRESSION” (Joslin Diabetes Center, Inc., priority 2014, published 2017):
Entries after “also recorded” stand apart in the source; their conditions may differ.

Experiments:
[1] = molecular target: T1, (Mus musculus, UniProt Q923E4); assay: EX 527 effect on FGF6-induced UCP1 and PTGS2 expression in WT-1 preadipocytes; assay type: cell-based, murine; conditions: 50 uM pretreatment 3 hours, then EX and FGF6 18 hours
T1 construct: endogenous in cells; host or cells: WT-1 murine brown preadipocytes
T1 sequence (Q923E4 2-737 limits assumed): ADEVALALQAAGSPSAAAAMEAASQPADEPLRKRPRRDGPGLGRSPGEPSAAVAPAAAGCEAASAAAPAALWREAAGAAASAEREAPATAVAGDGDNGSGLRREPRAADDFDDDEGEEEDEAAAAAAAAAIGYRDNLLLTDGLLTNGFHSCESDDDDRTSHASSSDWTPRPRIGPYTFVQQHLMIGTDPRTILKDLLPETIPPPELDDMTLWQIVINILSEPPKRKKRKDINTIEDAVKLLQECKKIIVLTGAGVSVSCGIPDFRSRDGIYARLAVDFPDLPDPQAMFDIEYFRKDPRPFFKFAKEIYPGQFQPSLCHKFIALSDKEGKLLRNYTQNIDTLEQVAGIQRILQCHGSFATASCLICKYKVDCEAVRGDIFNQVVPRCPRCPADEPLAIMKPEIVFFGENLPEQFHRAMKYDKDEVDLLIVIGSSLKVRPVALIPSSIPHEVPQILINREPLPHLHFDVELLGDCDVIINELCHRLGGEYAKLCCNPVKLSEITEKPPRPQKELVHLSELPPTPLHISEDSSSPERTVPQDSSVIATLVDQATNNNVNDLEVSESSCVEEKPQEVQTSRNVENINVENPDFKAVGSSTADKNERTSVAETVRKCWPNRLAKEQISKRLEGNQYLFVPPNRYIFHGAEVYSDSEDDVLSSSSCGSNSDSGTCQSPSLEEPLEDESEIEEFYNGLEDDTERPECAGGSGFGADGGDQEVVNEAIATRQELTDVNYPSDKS
Experimental: (§1) To determine if the […] pathway is utilized by FGF6 to regulate UCP1 expression and mitochondrial function, WT-1 preadipocytes were pretreated with the […] selective inhibitor EX (EX 527; Santa Cruz Biotechnology) at concentrations of 0 uM or 50 uM in growth media (DMEM+10% FBS) for 3 hours. Following EX treatment, the cells were treated with EX and FGF6 for 18 hours.

Sirt2 = molecular target: T2, Sirt2 (Mus musculus, UniProt Q923E4); assay: as above; assay type: cell-based, murine; conditions: 50 uM pretreatment 3 hours, then EX and FGF6 18 hours
T2 construct: endogenous in cells; host or cells: WT-1 murine brown preadipocytes
T2 sequence (Q923E4 2-737 limits assumed): T1 sequence (Q923E4 2-737 limits assumed)
Experimental: as §1

FGF6-induced PTGS2 expression level [1]: reduced; also recorded: suppression
SMILES: NC(=O)C1CCCc2c1[nH]c1ccc(Cl)cc21 (centres unmarked) [EX]
FGF6-induced UCP1 mRNA expression (Sirt2): inhibited UCP1 expression; also recorded: suppression
